Test results: patent publication US11214594B2, “Antimicrobial peptide having synergistic antibacterial effect with antibiotics on multidrug resistant bacteria, and use thereof” (priority 2016, dated 2022)
≈ marks a conversion by molar mass, not a printed value. Like-named read-outs stand apart in the source and are kept apart here. Where a SMILES comes first, the peptide text is derived from it.

Tests used:
[1] = system: P. aeruginosa; test: microbe, parasite or virus in culture; type: cell-based, Pseudomonas aeruginosa
How it was run: (§1)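 Peptides were serially diluted twofold in Mueller-Hinton medium and combined 1:1 with bacterial suspensions prepared at 2×10^6 CFU. Readout was the minimal inhibitory concentration, i.e. the lowest concentration with no growth.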

[2] = system: B. subtilis; test: microbe, parasite or virus in culture; type: cell-based, Bacillus subtilis
How it was run: as §1

[3] = system: A. baumannii; test: MIC of antimicrobial peptide during combined treatment with antibiotic; type: cell-based, Acinetobacter baumannii
How it was run: (§2)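 Strains in MH medium at 2×10^6 CFU/ml were mixed with peptide diluted stepwise (2:1) from its MIC, then antibiotic dilutions in MH medium were added to give the antibiotic MIC. The reversed set-up, peptide titrated against fixed antibiotic, gave the peptide MIC.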

[4] = system: MDRAB 12035; test: as above; type: cell-based, Acinetobacter baumannii
How it was run: as §2

[5] = system: E. coli; type: cell-based, Escherichia coli; conditions: E. coli
How it was run: as §2

[6] = system: MDREC 1229; type: cell-based, Escherichia coli
How it was run: as §2

[7] = system: E. coli; test: MIC of antibiotic during combined treatment with antimicrobial peptide; type: cell-based, Escherichia coli; conditions: for Antibiotic MIC, Erythromycin / Antibiotic MIC, Linezolid / Antibiotic MIC, Vancomycin: E. coli
How it was run: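 Checkerboard-type MIC of peptide–antibiotic mixtures in MH medium: the antibiotic was serially diluted in MH medium and added to wells, then the reversed arrangement was also tested.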

[8] = system: S. epidermidis; test: microbe, parasite or virus in culture; type: cell-based, Staphylococcus epidermidis
How it was run: as §1

[9] = system: MRSA 3114; type: cell-based, Staphylococcus aureus; conditions: 3114
How it was run: as §1

[10] = system: MRSA 3126; type: cell-based, Staphylococcus aureus; conditions: 3126
How it was run: as §1

[11] = system: MDRAB 12035; test: MIC of antibiotic during combined treatment with antimicrobial peptide; type: cell-based, Acinetobacter baumannii
How it was run: as §2

[12] = system: MDRST 8007; test: Minimal inhibitory concentration (MIC), single agent; type: cell-based, Salmonella typhimurium; conditions: agent alone
How it was run: as §1

[13] = system: MDRAB 12036; type: cell-based, Acinetobacter baumannii
How it was run: as §1

[14] = system: MDREC 1238; type: cell-based, Escherichia coli
How it was run: as §1

[15] = system: E. coli; test: microbe, parasite or virus in culture; type: cell-based, Escherichia coli; conditions: 16 h
How it was run: as §1

[16] = system: MDREC 1229; test: microbe, parasite or virus in culture; type: cell-based, Escherichia coli
How it was run: as §1

[17] = system: MDRPA 2002; type: cell-based, Pseudomonas aeruginosa
How it was run: as §1

[18] = system: MDRPA 2003; type: cell-based, Pseudomonas aeruginosa
How it was run: as §1

[19] = system: MDRST 8009; type: cell-based, Salmonella typhimurium; conditions: agent alone
How it was run: as §1

[20] = erythromycin 4 μg/ml (Conc./MIC 1/8)
[21] = erythromycin 8 μg/ml (Conc./MIC 1/4)
[22] = erythromycin 16 μg/ml (Conc./MIC 1/2)
[23] = erythromycin 32 μg/ml (Conc./MIC 1)
[24] = vancomycin 512 μg/ml (Conc./MIC 1/2)
[25] = vancomycin 1024 μg/ml (Conc./MIC 1)
[26] = with Erythromycin […] (Conc./MIC 1)
[27] = peptide treatment concentration 1 μg/ml
[28] = peptide treatment concentration 2 μg/ml
[29] = peptide treatment concentration 4 μg/ml
[30] = peptide treatment concentration 6 μg/ml
[31] = peptide treatment concentration 8 μg/ml
[32] = peptide treatment concentration 16 μg/ml
[33] = peptide treatment concentration 32 μg/ml
[34] = peptide treatment concentration 64 μg/ml

In the case of CC[C@H](C)[C@H](NC(=O)[C@H](CCCCN)NC(=O)[C@H](Cc1c[nH]c2ccccc12)NC(=O)[C@@H](N)CCCNC(=N)N)C(=O)N[C@@H](Cc1ccccc1)C(=O)N[C@@H](CCCCN)C(=O)N[C@@H](CCCCN)C(=O)N[C@H](C(=O)N1CCC[C@H]1C(=O)N[C@@H](CCCCN)C(=O)N[C@@H](Cc1ccccc1)C(=O)N[C@@H](CC(C)C)C(=O)N[C@@H](Cc1c[nH]cn1)C(=O)N[C@@H](CO)C(=O)N[C@@H](C)C(=O)N[C@@H](CCCCN)C(=O)N[C@@H](CCCCN)C(=O)N[C@@H](Cc1c[nH]c2ccccc12)C(N)=O)[C@@H](C)CC [PapMA-2, RWK IFK KIP KFL HSA KKW-NH2] (H-RWKIFKKIPKFLHSAKKW-NH2; N-terminus assumed), the “Minimal inhibitory concentration MIC” value [1] is reported as 16 µg/mL (≈ 6.83 µM), the “Minimal inhibitory concentration MIC” value [2] is reported as over 128 µg/mL and the “Peptide MIC during treatment with antibiotic” value [3, 20] is reported as 4 µg/mL. For the same molecule, the “Peptide MIC during treatment with antibiotic” value [3, 21] was 4 µg/mL, the “Peptide MIC during treatment with antibiotic” value [3, 22] was 1 µg/mL and the “Peptide MIC during treatment with antibiotic” value [3, 23] was 0 µg/mL. The “Peptide MIC during treatment with antibiotic” value ([3]; linezolid 32 μg/ml (Conc./MIC 1/8)) was 4 µg/mL, the “Peptide MIC during treatment with antibiotic” value ([3]; linezolid 64 μg/ml (Conc./MIC 1/4)) was 4 µg/mL and the “Peptide MIC during treatment with antibiotic” value ([3]; linezolid […] (Conc./MIC 1)) was 0 µg/mL. The “Peptide MIC during treatment with antibiotic” value ([3]; linezolid […] (Conc./MIC 1/2)) was 0.5 µg/mL, the “Peptide MIC during treatment with antibiotic” value [3, 24] was 0.25 µg/mL and the “Peptide MIC during treatment with antibiotic” value [3, 25] was 0 µg/mL. For the same molecule, the “Peptide MIC during treatment with antibiotic” value ([3]; vancomycin […] (Conc./MIC 1/4)) was 0.5 µg/mL, the “Peptide MIC during treatment with antibiotic” value ([3]; vancomycin […] (Conc./MIC 1/8)) was 2 µg/mL and the “Peptide MIC during treatment with erythromycin” value [4, 20] was 4 µg/mL. For the same molecule, the “Peptide MIC during treatment with erythromycin” value [4, 21] was 4 µg/mL, the “Peptide MIC during treatment with erythromycin” value [4, 22] was 2 µg/mL and the “Peptide MIC during treatment with erythromycin” value [4, 23] was 0 µg/mL. The “Peptide MIC during treatment with linezolid” value ([4]; linezolid 64 μg/ml (Conc./MIC 1/8)) was 4 µg/mL, the “Peptide MIC during treatment with linezolid” value ([4]; linezolid 512 μg/ml (Conc./MIC 1)) was 0 µg/mL and the “Peptide MIC during treatment with linezolid” value ([4]; linezolid […] (Conc./MIC 1/2)) was 1 µg/mL. For the same molecule, the “Peptide MIC during treatment with linezolid” value ([4]; linezolid […] (Conc./MIC 1/4)) was 2 µg/mL, the “Peptide MIC during treatment with vancomycin” value [4, 24] was 1 µg/mL and the “Peptide MIC during treatment with vancomycin” value [4, 25] was 0.25 µg/mL. The “Peptide MIC during treatment with vancomycin” value ([4]; vancomycin […] (Conc./MIC 1/4)) was 2 µg/mL, the “Peptide MIC during treatment with vancomycin” value ([4]; vancomycin […] (Conc./MIC 1/8)) was 4 µg/mL and the “Peptide MIC” value [5, 26] was 0 µg/mL. The “Peptide MIC” value ([5]; with Linezolid […] (Conc./MIC 1)) was 0 µg/mL, the “Peptide MIC” value ([5]; with Vancomycin 1024 μg/ml (Conc./MIC 1)) was 0 µg/mL and the “Peptide MIC” value [6, 26] was 0 µg/mL. The “Peptide MIC” value ([6]; with Linezolid 512 μg/ml (Conc./MIC 1)) was 0 µg/mL, the “Synergistic effect of antibacterial activity with existing antibiotics compared with PapMA-1” value ([7]; E. coli and MDREC1229) was “higher level than the PapMA-1 peptide” and the “Antibiotic MIC, Erythromycin” value ([7]; erythromycin combined with peptide at 1 μg/ml) was 64 µg/mL. For the same molecule, the “Antibiotic MIC, Erythromycin” value ([7]; erythromycin combined with peptide at 2 μg/ml) was 32 µg/mL, the “Antibiotic MIC, Erythromycin” value ([7]; erythromycin combined with peptide at 4 μg/ml) was 16 µg/mL and the “Antibiotic MIC, Erythromycin” value ([7]; erythromycin combined with peptide at 6 μg/ml) was 2 µg/mL. For the same molecule, the “Antibiotic MIC, Erythromycin” value ([7]; erythromycin combined with peptide at 8 μg/ml) was 0.5 µg/mL, the “Antibiotic MIC, Erythromycin” value ([7]; erythromycin combined with peptide at 16 μg/ml) was 0.25 µg/mL and the “Antibiotic MIC, Erythromycin” value ([7]; erythromycin combined with peptide at 32 μg/ml) was 0.125 µg/mL. For the same molecule, the “Antibiotic MIC, Erythromycin” value ([7]; erythromycin combined with peptide at 64 μg/ml) was 0 µg/mL, the “Antibiotic MIC, Linezolid” value ([7]; linezolid combined with peptide at 1 μg/ml) was 128 µg/mL and the “Antibiotic MIC, Linezolid” value ([7]; linezolid combined with peptide at 2 μg/ml) was 64 µg/mL. For the same molecule, the “Antibiotic MIC, Linezolid” value ([7]; linezolid combined with peptide at 4 μg/ml) was 16 µg/mL, the “Antibiotic MIC, Linezolid” value ([7]; linezolid combined with peptide at 6 μg/ml) was 16 µg/mL and the “Antibiotic MIC, Linezolid” value ([7]; linezolid combined with peptide at 8 μg/ml) was 8 µg/mL. The “Antibiotic MIC, Linezolid” value ([7]; linezolid combined with peptide at 16 μg/ml) was 8 µg/mL, the “Antibiotic MIC, Linezolid” value ([7]; linezolid combined with peptide at 32 μg/ml) was 4 µg/mL and the “Antibiotic MIC, Linezolid” value ([7]; linezolid combined with peptide at 64 μg/ml) was 0 µg/mL. For the same molecule, the “Antibiotic MIC, Vancomycin” value ([7]; vancomycin combined with peptide at 1 μg/ml) was over 128 µg/mL, the “Antibiotic MIC, Vancomycin” value ([7]; vancomycin combined with peptide at 2 μg/ml) was over 128 µg/mL and the “Antibiotic MIC, Vancomycin” value ([7]; vancomycin combined with peptide at 4 μg/ml) was over 128 µg/mL. For the same molecule, the “Antibiotic MIC, Vancomycin” value ([7]; vancomycin combined with peptide at 6 μg/ml) was 64 µg/mL, the “Antibiotic MIC, Vancomycin” value ([7]; vancomycin combined with peptide at 8 μg/ml) was 32 µg/mL and the “Antibiotic MIC, Vancomycin” value ([7]; vancomycin combined with peptide at 16 μg/ml) was 8 µg/mL. The “Antibiotic MIC, Vancomycin” value ([7]; vancomycin combined with peptide at 32 μg/ml) was 4 µg/mL, the “Antibiotic MIC, Vancomycin” value ([7]; vancomycin combined with peptide at 64 μg/ml) was 0 µg/mL and the “Lowering of the MIC value of the antibiotics mixed with peptide compared with PapMA-1” value ([7]; same peptide concentration as PapMA-1) was “twice to four times”. The “Minimal inhibitory concentration MIC” value [8] was over 128 µg/mL, the “Minimal inhibitory concentration MIC” value [9] was over 128 µg/mL and the “Minimal inhibitory concentration MIC” value [10] was over 128 µg/mL. The “Erythromycin MIC during combined treatment with peptide” value [11, 27] was 32 µg/mL, the “Linezolid MIC during combined treatment with peptide” value [11, 27] was over 128 µg/mL and the “Vancomycin MIC during combined treatment with peptide” value [11, 27] was over 128 µg/mL. For the same molecule, the “Erythromycin MIC during combined treatment with peptide” value [11, 28] was 16 µg/mL, the “Linezolid MIC during combined treatment with peptide” value [11, 28] was 64 µg/mL and the “Vancomycin MIC during combined treatment with peptide” value [11, 28] was over 128 µg/mL. The “Erythromycin MIC during combined treatment with peptide” value [11, 29] was 4 µg/mL, the “Linezolid MIC during combined treatment with peptide” value [11, 29] was 32 µg/mL and the “Vancomycin MIC during combined treatment with peptide” value [11, 29] was 128 µg/mL. The “Erythromycin MIC during combined treatment with peptide” value [11, 30] was 2 µg/mL, the “Linezolid MIC during combined treatment with peptide” value [11, 30] was 32 µg/mL and the “Vancomycin MIC during combined treatment with peptide” value [11, 30] was 32 µg/mL. The “Erythromycin MIC during combined treatment with peptide” value [11, 31] was 0.25 µg/mL, the “Linezolid MIC during combined treatment with peptide” value [11, 31] was 8 µg/mL and the “Vancomycin MIC during combined treatment with peptide” value [11, 31] was 16 µg/mL. For the same molecule, the “Erythromycin MIC during combined treatment with peptide” value [11, 32] was 0 µg/mL, the “Linezolid MIC during combined treatment with peptide” value [11, 32] was 0 µg/mL and the “Vancomycin MIC during combined treatment with peptide” value [11, 32] was 0 µg/mL. The “Erythromycin MIC during combined treatment with peptide” value [11, 33] was 0 µg/mL, the “Linezolid MIC during combined treatment with peptide” value [11, 33] was 0 µg/mL and the “Vancomycin MIC during combined treatment with peptide” value [11, 33] was 0 µg/mL. The “Erythromycin MIC during combined treatment with peptide” value [11, 34] was 0 µg/mL, the “Linezolid MIC during combined treatment with peptide” value [11, 34] was 0 µg/mL and the “Vancomycin MIC during combined treatment with peptide” value [11, 34] was 0 µg/mL. The “Minimal inhibitory concentration MIC” value [12] was 32 µg/mL (≈ 13.7 µM), the “Minimal inhibitory concentration MIC” value [13] was 16 µg/mL (≈ 6.83 µM) and the “Minimal inhibitory concentration MIC” value [14] was 64 µg/mL (≈ 27.3 µM). For the same molecule, the “Minimal inhibitory concentration MIC” value [15] was 64 µg/mL (≈ 27.3 µM), the “Minimal inhibitory concentration MIC” value [16] was 64 µg/mL (≈ 27.3 µM) and the “Minimal inhibitory concentration MIC” value [17] was 16 µg/mL (≈ 6.83 µM). The “Minimal inhibitory concentration MIC” value [18] was 16 µg/mL (≈ 6.83 µM) and the “Minimal inhibitory concentration MIC” value [19] was 64 µg/mL (≈ 27.3 µM).
